Data published in the supplement of paper PMC10307832.

Tests used:
Test in all cases: relative viability (nuclei count vs DMSO), 5 days (fraction); higher = more cells survive
[1] = compound: CCn1c(-c2nonc2N)nc2c(C#CC(C)(C)O)ncc(OC[C@H]3CCCNC3)c21 + CCNC(=O)c1noc(-c2cc(C(C)C)c(O)cc2O)c1-c1ccc(CN2CCOCC2)cc1 [Luminespib] (partner 0.01 µM)
Procedure, shortened: (§1)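 Cells from lung cancer lines were seeded into 1536-well plates and, one day later, dosed by pin tool. Treatments were either a single drug or a fixed dose of an anchor drug with five library-drug doses (not always all listed) in √10 steps. After 5 days, nuclei were stained in a one-step fixation (final 0.05% Triton X-100, 1% formaldehyde, 1 ug/ml Hoechst) and counted on 4× images, and relative viability is the treated-to-vehicle nuclei ratio, as the median of duplicate plates.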

BAM7 + Lapatinib = compound: CCOC1=CC=CC=C1N=NC2=C(NN(C2=O)C3=NC(=CS3)C4=CC=CC=C4)C [BAM7] + CS(=O)(=O)CCNCc1ccc(-c2ccc3ncnc(Nc4ccc(OCc5cccc(F)c5)c(Cl)c4)c3c2)o1 [Lapatinib] (partner 2 µM)
Procedure, shortened: as §1

BAM7 + Navitoclax = compound: CCOC1=CC=CC=C1N=NC2=C(NN(C2=O)C3=NC(=CS3)C4=CC=CC=C4)C [BAM7] + CC1(C)CCC(c2ccc(Cl)cc2)=C(CN2CCN(c3ccc(C(=O)NS(=O)(=O)c4ccc(N[C@H](CCN5CCOCC5)CSc5ccccc5)c(S(=O)(=O)C(F)(F)F)c4)cc3)CC2)C1 [Navitoclax] (partner 0.5 µM)
Procedure, shortened: as §1

[2] = compound: CCn1c(-c2nonc2N)nc2c(C#CC(C)(C)O)ncc(OC[C@H]3CCCNC3)c21 + Cc1nc(Nc2ncc(C(=O)Nc3c(C)cccc3Cl)s2)cc(N2CCN(CCO)CC2)n1 [Dasatinib] (partner 0.075 µM)
Procedure, shortened: as §1

Cell Line	relative viability ([1]; first compound 0.01 µM)	relative viability ([1]; first compound 0.03162 µM)	relative viability ([1]; first compound 0.1 µM)	relative viability ([1]; first compound 0.3162 µM)	relative viability ([1]; first compound 1 µM)	relative viability (BAM7 + Lapatinib; first compound 0.5 µM)	relative viability (BAM7 + Lapatinib; first compound 5 µM)	relative viability (BAM7 + Lapatinib; first compound 15.81 µM)	relative viability (BAM7 + Lapatinib; first compound 50 µM)	relative viability (BAM7 + Navitoclax; first compound 0.5 µM)	relative viability (BAM7 + Navitoclax; first compound 5 µM)	relative viability (BAM7 + Navitoclax; first compound 15.81 µM)	relative viability (BAM7 + Navitoclax; first compound 50 µM)	relative viability ([2]; first compound 0.01 µM)	relative viability ([2]; first compound 0.03162 µM)	relative viability ([2]; first compound 0.1 µM)	relative viability ([2]; first compound 0.3162 µM)	relative viability ([2]; first compound 1 µM)
NCI-H1651	0.969	0.875	0.811	0.755	0.953	0.747	0.756	0.831	0.858	1.01	1.01	0.943	1.09	0.43	0.402	0.412	0.396	0.454
NCI-H1944	0.7	0.786	0.76	0.751	0.733	0.894	0.998	0.842	0.954	1.07	1.14	0.875	0.882	0.215	0.224	0.213	0.212	0.212
SW 1573	0.215	0.563	0.178	0.584	0.342	1.17	1.23	1.09	1.33	0.89	1.02	1.24	1.06	0.377	0.561	0.431	0.455	0.354
A-427	0.944	1.03	0.77	0.867	0.946	1.01	1.09	1.03	1.09	0.991	0.921	0.974	0.971	0.624	0.716	0.729	0.729	0.793
NCI-H2347	0.396	0.0975		0.516	0.31	0.968	1.26	0.899	1.03	0.765	0.918	0.806	0.861	0.317	0.264		0.274	0.334
NCI-H1355	0.716	0.688	0.746	0.695	0.693	0.972	1.01	0.986	1.02	0.856	0.94	0.773	0.957	0.64	0.66	0.738	0.682	0.755
PC-3 [JPC-3]	0.734	0.726	0.709	0.67	0.591	0.425	0.472	0.427	0.412	0.688	0.815	0.755	0.626	0.932	0.967	1.02	0.986	0.902
NCI-H2228	0.0991	0.159	0.145	0.113	0.123	1.31	1.19	1.05	1.1	0.985	1.4	0.818	1.27	0.451	0.526	0.583	0.482	0.353
HOP-62	0.903	0.878	0.913	0.876	0.967	1.09	1.27	0.969	0.986	1.03	1.23	1.04	1.06	0.64	0.587	0.66	0.659	0.607
